Holding throughout (format): functional
Common to all, as to details: 336 h

Experiment [1] concerns Mycobacterium tuberculosis. The experiment in a line: Antitubercular activity against multi-drug resistant Mycobacterium tuberculosis K26b00MR after 14 days in presence of middlebrook 7H9/BSA medium by eleven fold serial dilution method.
Experiment [2] concerns Mycobacterium tuberculosis. The experiment is described as follows: Antitubercular activity against multi-drug resistant Mycobacterium tuberculosis K29b00MR after 14 days in presence of middlebrook 7H9/BSA medium by eleven fold serial dilution method.
Experiment [3] has as its system Mycobacterium tuberculosis. The experiment is described as follows: Antitubercular activity against multi-drug resistant Mycobacterium tuberculosis K22b00MR after 14 days in presence of middlebrook 7H9/BSA medium by eleven fold serial dilution method.
In experiment [4] the test system is Mycobacterium tuberculosis. The experiment is described as follows: Antitubercular activity against multi-drug resistant Mycobacterium tuberculosis K25b00MR after 14 days in presence of middlebrook 7H9/BSA medium by eleven fold serial dilution method.

One may read the MIC as the lowest concentration that inhibits growth of the organism. In the case of `O=C1CC(Sc2ccc(C(F)(F)F)cc2)N1C(=O)NCc1ccccc1` (racemic), the MIC in experiment [1] was found to be 12.5 µg/mL; in experiment [2], 25 µg/mL; in experiment [3] it was 12.5 µg/mL; in experiment [4] it was 25 µg/mL.
Turning to `C[C@@H](NC(=O)N1C(=O)C[C@H]1Sc1ccc(F)cc1F)c1ccccc1`, the minimal inhibitory concentration (MIC) is 12.5 to 25 µg/mL in experiment [1], 12.5 µg/mL in experiment [2], 12.5 µg/mL in experiment [3] and 12.5 µg/mL in experiment [4].
With `C[C@H](NC(=O)N1C(=O)C[C@@H]1Sc1ccc(C(F)(F)F)cc1)c1ccccc1`, the MIC was 12.5 µg/mL in experiment [1], 12.5 µg/mL in experiment [2], 12.5 µg/mL in experiment [3] and 12.5 to 25 µg/mL in experiment [4].
With `NNC(=O)c1ccncc1` [ISONIAZID], the MIC in experiment [1] was over 1 µg/mL; in experiment [2], at least 1 µg/mL; in experiment [3], 0.6 µg/mL; in experiment [4], 1.3 µg/mL.
For `C[C@@H](NC(=O)N1C(=O)C[C@@H]1Sc1ccc(F)cc1F)c1ccccc1` the same measures were 25 µg/mL, 12.5 µg/mL, 12.5 µg/mL and 12.5 µg/mL.
For `C[C@H](NC(=O)N1C(=O)C[C@H]1Sc1ccc(F)cc1F)c1ccccc1` the same measures were 25 to 50 µg/mL, 25 µg/mL, 25 µg/mL and 12.5 to 25 µg/mL.

The values are drawn from ChEMBL document CHEMBL4304800, “C4-Phenylthio β-lactams: Effect of the chirality of the β-lactam ring on antimicrobial activity” (2019).
